These results are taken from patent US10669246B2, “Benzothiazol compounds and methods using the same for treating neurodegenerative disorders” (1ST Biotherapeutics, Inc., priority 2017, dated 2020).

Bounds are passed on as bounds.

Series [1] relates to Aβ25-35 induced AD mice. The experiment in a line: Y-maze spontaneous alternation in Aβ25-35 induced AD mice. The format is in vivo. The note with it: orally once daily for 10 days; Example 4 1, 3 and 10 mg/kg, nilotinib 3 mg/kg. An excerpt: Y-maze test as a behavioral test was used to assess memory function and the willingness of rodents to explore new environments ICV injection of oligomeric Aβ25-35 peptide triggered neurotoxic effects and behavioral deficit in Y-maze test evaluating short term memory, by measurement of spontaneous alternation, while any change of motor symptom was not observed by measurement of locomotion.

The subject of series [2] is Aβ25-35 induced AD mice. Briefly: Step-through passive avoidance (STPA) test in Aβ25-35 induced AD mice. The class given is in vivo. As to conditions: orally once daily for 10 days; Example 4 1, 3 and 10 mg/kg, nilotinib 3 mg/kg.
The test system of series [3] is Phosphorylation of α-synuclein at ser129. The experiment in a line: Phosphorylation of α-synuclein in α-synuclein PFF induced PD model. As to conditions: q.d.; for reduction of phosphorylation of α-synuclein at ser129: oral. The format is in vivo, mice.
In series [4] the test system is Aβ25-35 induced AD mice. Briefly: Lipid peroxidation in hippocampus homogenates of Aβ25-35 injected mice. The format is in vivo. The note with it: once daily oral dosing of 3 mg/kg and 10 mg/kg. An excerpt: 10 Days after ICV injection of oligomeric Aβ25-35 peptide, the hippocampus was dissected out. And lipid peroxidation level was quantified in the hippocampus homogenates. ICV injection of oligomeric Aβ25-35 peptide induced lipid peroxidation, a marker for oxidative stress. […] (FIG. 7)

A short description of series [5]: Oral dose pharmacokinetic study in mice. As to conditions: for brain exposure compared with nilotinib: oral 5 mg/kg.
Series [6] is described as follows: in vivo. As to conditions: male, ICR, mouse, po, 5 mg/kg.
Series [7] concerns α-synuclein PFF induced PD mice. Briefly: Pole test in α-synuclein PFF induced PD mice. The format is in vivo.
Series [8] concerns α-synuclein PFF-induced pathologic aggregation (Lewy body-like pathology). Briefly: α-synuclein PFF-induced pathologic aggregation. The format is cell-based.
For series [9], the system named is PFF-induced neuronal toxicity. The experiment in a line: PFF-induced neuronal toxicity. As to conditions: dose: 0.5, 1, 5, 10, 100 nM. The format is cell-based.
Series [10] has as its target hERG (Homo sapiens (Human), UniProt Q12809). The experiment in a line: hERG activity. For orientation: Block of hERG is tested as a sign of cardiac risk.
The target of series [11] is Recombinant human c-Kit (Homo sapiens (Human), UniProt P10721). The experiment in a line: c-KIT kinase assay (ADP-Glo). The format is biochemical. The note with it: Table 3, kinase selectivity. As for the experimental part:
ADP-Glo assay kit was purchased from Promega. Magnesium chloride (MgCl2), Manganese(II) chloride (MnCl2), Bovine serum albumin (BSA) and dimethylsulfoxide (DMSO) were purchased from Sigma-Aldrich. Tris-HCl buffer was purchased from Biosesang. c-Kit kinase and Poly (4:1 Glu, Tyr) Peptide were purchased from Signalchem.
c-Kit kinase activity was measured by Promega's ADP-Glo™ Assay.

[12] abbreviates: 10 mg/kg orally once daily for 5 months.

Sequence of Recombinant human c-Kit (P10721 26-976): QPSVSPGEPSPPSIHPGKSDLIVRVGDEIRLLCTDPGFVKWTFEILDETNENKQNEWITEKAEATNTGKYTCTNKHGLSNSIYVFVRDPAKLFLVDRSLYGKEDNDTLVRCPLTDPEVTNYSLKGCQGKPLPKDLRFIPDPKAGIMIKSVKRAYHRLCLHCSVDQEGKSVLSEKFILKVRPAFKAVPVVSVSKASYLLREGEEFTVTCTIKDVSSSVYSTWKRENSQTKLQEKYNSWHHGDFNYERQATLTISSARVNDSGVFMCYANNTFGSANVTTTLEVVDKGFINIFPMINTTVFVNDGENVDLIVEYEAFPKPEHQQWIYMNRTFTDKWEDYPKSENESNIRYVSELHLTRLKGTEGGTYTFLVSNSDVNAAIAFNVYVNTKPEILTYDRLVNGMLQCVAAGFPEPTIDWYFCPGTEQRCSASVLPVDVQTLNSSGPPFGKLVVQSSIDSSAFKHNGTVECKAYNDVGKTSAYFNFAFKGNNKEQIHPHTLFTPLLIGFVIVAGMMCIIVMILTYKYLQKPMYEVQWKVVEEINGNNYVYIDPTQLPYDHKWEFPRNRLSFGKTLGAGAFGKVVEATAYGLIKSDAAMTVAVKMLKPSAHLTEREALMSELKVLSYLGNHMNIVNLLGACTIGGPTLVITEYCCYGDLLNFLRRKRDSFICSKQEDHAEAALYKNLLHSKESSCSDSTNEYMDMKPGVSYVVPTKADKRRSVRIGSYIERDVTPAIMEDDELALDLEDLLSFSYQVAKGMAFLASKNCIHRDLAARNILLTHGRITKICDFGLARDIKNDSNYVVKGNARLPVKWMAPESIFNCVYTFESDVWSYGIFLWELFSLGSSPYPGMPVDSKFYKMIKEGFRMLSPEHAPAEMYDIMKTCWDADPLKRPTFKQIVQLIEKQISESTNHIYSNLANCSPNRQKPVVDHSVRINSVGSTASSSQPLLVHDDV
Sequence of hERG (Q12809 whole entry): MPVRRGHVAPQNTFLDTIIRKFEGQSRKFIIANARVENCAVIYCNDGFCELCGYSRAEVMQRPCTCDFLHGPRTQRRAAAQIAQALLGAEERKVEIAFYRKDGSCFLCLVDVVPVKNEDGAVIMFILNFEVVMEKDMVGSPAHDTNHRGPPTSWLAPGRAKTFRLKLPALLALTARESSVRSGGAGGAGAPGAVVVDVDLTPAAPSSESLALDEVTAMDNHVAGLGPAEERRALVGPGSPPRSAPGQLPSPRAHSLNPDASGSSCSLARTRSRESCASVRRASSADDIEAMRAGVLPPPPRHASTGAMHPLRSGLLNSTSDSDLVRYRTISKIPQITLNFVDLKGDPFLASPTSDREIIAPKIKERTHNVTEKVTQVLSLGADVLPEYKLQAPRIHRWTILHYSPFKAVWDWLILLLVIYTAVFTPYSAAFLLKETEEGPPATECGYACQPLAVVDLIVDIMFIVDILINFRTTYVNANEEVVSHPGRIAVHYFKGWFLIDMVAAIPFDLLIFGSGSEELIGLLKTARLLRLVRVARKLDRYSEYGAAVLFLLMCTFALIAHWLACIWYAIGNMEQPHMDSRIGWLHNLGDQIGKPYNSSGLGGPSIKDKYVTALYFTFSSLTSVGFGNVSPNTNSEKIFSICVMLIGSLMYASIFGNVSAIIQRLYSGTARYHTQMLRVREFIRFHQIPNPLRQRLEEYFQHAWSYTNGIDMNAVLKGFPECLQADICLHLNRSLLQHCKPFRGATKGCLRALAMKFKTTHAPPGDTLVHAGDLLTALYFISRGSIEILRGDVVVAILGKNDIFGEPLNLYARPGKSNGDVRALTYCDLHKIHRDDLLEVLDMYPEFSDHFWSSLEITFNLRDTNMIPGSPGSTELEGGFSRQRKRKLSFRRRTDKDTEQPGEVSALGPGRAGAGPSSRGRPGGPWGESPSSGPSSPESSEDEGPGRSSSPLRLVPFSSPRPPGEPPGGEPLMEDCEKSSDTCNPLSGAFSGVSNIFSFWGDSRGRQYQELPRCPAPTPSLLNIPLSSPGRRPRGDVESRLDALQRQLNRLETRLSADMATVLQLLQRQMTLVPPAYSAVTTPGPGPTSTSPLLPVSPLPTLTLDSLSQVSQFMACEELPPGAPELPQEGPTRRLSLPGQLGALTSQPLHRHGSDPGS

Turning to `Cc1ccncc1-c1ccc2nc(NC(=O)[C@@H]3C[C@@H]3F)sc2c1` [Example 4, (1S,2S)-2-fluoro-N-(6-(4-methylpyridin-3-yl)benzo[d]thiazol-2-yl)cyclopropane-1-carboxamide], the “deficits of alternation behavior (spatial working memory)” value in series [1] was “very significantly and fully alleviated”. The “contextual long-term memory deficits” value in [2] is “very significantly and fully alleviated”. Further, the “reduction of phosphorylation of α-synuclein at ser129” value in [3] (3 mg/kg) is recorded as “about 50%”; in series [3] (10 mg/kg), about 80%. The “lipid peroxidation (oxidative stress marker) in hippocampus” value in series [4] was “completely inhibited”. Further, in series [5], the PK profile entry is “good PK profiles”. This molecule had an AUCINF in series [5] (PO 5 mg/kg, Table 5) of 682041.7 ng·min/mL. Further, in [5], the “brain exposure compared with nilotinib” value is “better brain exposure than nilotinib”. Further, the area under the curve AUC(0-inf) in series [6] (brain) is 4140 ng·h/mL; in [6] (plasma), 11400 ng·h/mL. In addition, in series [6] (plasma), the highest level (Cmax) was 3590 ng/mL. The Tmax in series [6] (plasma) is 30 min. The “improvement of pole climb down time” value in [7] (0.3 mg/kg orally once daily for 5 months) turned out to be 50%. In addition, the “pole climb down time” value is “completely recovered” in series [7] (setting [12]); “recovered by treatment of Example 4 in a dose-dependent manner” in series [7] (0.3, 1, 3 and 10 mg/kg orally once daily for 5 months). The “α-synuclein PFF-induced pathologic aggregation (Lewy body-like pathology)” value in series [8] is on record as “decreased”. Moreover, in series [9], the PFF-induced neuronal toxicity result was “inhibited PFF-induced neuronal toxicity in a dose dependent manner”.
On to `Cc1ccncc1-c1ccc2nc(NC(=O)C3CC3)sc2c1` [Example 5, N-(6-(4-methylpyridin-3-yl)benzo[d]thiazol-2-yl)cyclopropanecarboxamide], for which the AUC(0-inf) is 1980 ng·h/mL in series [6] (brain) and 8480 ng·h/mL in series [6] (plasma).
Take `Cc1ccncc1-c1ccc2sc(NC(=O)[C@@H]3C[C@@H]3F)nc2c1` [Example 6, (1S,2S)-2-fluoro-N-(5-(4-methylpyridin-3-yl)benzo[d]thiazol-2-yl)cyclopropane-1-carboxamide]: the figures for the AUC(0-inf) in [6] (brain) and in series [6] (plasma) were 3950 ng·h/mL and 4860 ng·h/mL, respectively. Further, the Kp in series [6] (brain/plasma) turned out to be 0.5.
In series [10], `Cc1c(F)cncc1-c1ccc2nc(NC(=O)[C@@H]3C[C@@H]3F)sc2c1` [Example 8, (1S,2S)-2-fluoro-N-(6-(5-fluoro-4-methylpyridin-3-yl)benzo[d]thiazol-2-yl)cyclopropane-1-carboxamide] showed an inhibition at 10 µM of 12.6%. Further, in [5], the PK profile entry is on record as “good PK profiles” and the “brain exposure compared with nilotinib” value was “better brain exposure than nilotinib”. Besides, in [6] (plasma), the Cmax was determined as 4170 ng/mL and the Tmax is 60 min.
For the molecule `Cc1ccc(O)cc1-c1ccc2nc(NC(=O)[C@@H]3C[C@@H]3F)sc2c1` [Example 14, (1S,2S)-2-fluoro-N-(6-(5-hydroxy-2-methylphenyl)benzo[d]thiazol-2-yl)cyclopropane-1-carboxamide], the IC50 in series [11] worked out at 1.34 µM.
As for `C=C(C)c1ccc(C)c(-c2ccc3nc(NC(=O)[C@@H]4C[C@@H]4F)sc3c2)c1` [Example 17, (1S,2S)-2-fluoro-N-(6-(2-methyl-5-(prop-1-en-2-yl)phenyl)benzo[d]thiazol-2-yl)cyclopropane-1-carboxamide], in [11], the IC50 is over 10 µM.
Take `Cc1c(O)cccc1-c1ccc2nc(NC(=O)[C@@H]3C[C@@H]3F)sc2c1` [Example 22, (1S,2S)-2-fluoro-N-(6-(3-hydroxy-2-methylphenyl)benzo[d]thiazol-2-yl)cyclopropane-1-carboxamide]: the IC50 in [11] stood at 1.02 µM.
On to `Cc1cn(-c2cc(NC(=O)c3ccc(C)c(Nc4nccc(-c5cccnc5)n4)c3)cc(C(F)(F)F)c2)cn1` [Nilotinib, nilotinib, reference compound], for which the “deficits of alternation behavior (spatial working memory)” value in series [1] was “partially alleviated”. In addition, the “contextual long-term memory deficits” value in [2] is “no significant effect”. The “effect on phosphorylation of α-synuclein” value in series [3] (3 and 10 mg/kg) is given as “not effective”. Also, the “pole climb down time” value in [7] (setting [12]) is listed as “just a slight improvement”.

A word on the AUC(0-inf): it is total exposure, with the tail of the curve extrapolated. The Cmax is the peak of the concentration-time curve. What is called Tmax is the time from dosing to the highest level. A word on the Kp: it is tissue or fluid exposure divided by exposure in the circulation. As usually defined, the inhibition is the relative decrease from the control value, in per cent. High values mean a strong effect, low ones a weak effect. A word on the IC50: it is the midpoint of a concentration-inhibition curve.
